In PubChem BioAssay (NCI) one finds GI50 and TGI data, which are given here for eight compounds.

Values joined by “and” are separate entries in the source; they are usually repeats but may differ in a detail not shown here. Identical values can stand only once.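 A five-concentration, 48-hour dose response in 96-well plates underlies each endpoint, interpolated linearly between surrounding concentrations. At the GI50, growth is halved. TGI: total growth inhibition.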

What all share (assay): NCI-60 cell line screen, 48 h
Experiment [1] concerns SF-295 CNS.
Experiment [2] concerns SK-MEL-2 melanoma.
Experiment [3] has as its system DU-145 prostate.
In experiment [4] the test system is OVCAR-4 ovarian.
The subject of experiment [5] is SW-620 colon.
Experiment [6] relates to HOP-92 NSCLC.
Experiment [7] relates to HCC-2998 colon.
Experiment [8] has as its system SF-268 CNS.
The subject of experiment [9] is OVCAR-3 ovarian.
Experiment [10] relates to SK-OV-3 ovarian.

As to `COc1cc(C(=O)/C=C/c2c(C(F)(F)F)nc3ccccn23)cc(OC)c1OC`, the GI50 in [1] was 1.99 µM; in experiment [2], 2.43 µM; in [3] it was 1.61 µM; in experiment [4] it was 4.1 µM; in [5] it was 1.68 µM; in experiment [6] it was 2.65 µM. The GI50 in experiment [7] was 1.83 µM; in experiment [8], 1.64 µM; in [9] it was 1.83 µM; in [10] it was 4.04 µM. Further, the TGI is 3.92 µM in experiment [1]; 6.07 µM in experiment [2]; 3.51 µM in experiment [3]; above 100 µM in [4]; 4.24 µM in experiment [5]; 9.94 µM in experiment [6]. The TGI was determined as 3.38 µM in experiment [7], 3.52 µM in [8], 3.61 µM in experiment [9] and 19 µM in [10].

For the compound `c1ccc(CN2COc3c(ccc4c5c(ccc34)CN(Cc3ccccc3)CO5)C2)cc1`, the TGI in experiment [1], in experiment [2], in experiment [3], in [4], in experiment [5] and in [6] was above 100 µM throughout. For the same compound, the TGI in experiment [7], in experiment [8], in experiment [9] and in [10] was above 100 µM each time.

As to `S=C(NCc1ccc2c(c1)OCO2)N1CCN(c2ncnc3c2oc2ccccc23)CC1`, the GI50 was 5.38 µM in [1]; 50.3 µM in experiment [2]; above 100 µM in [3]; 0.451 µM in experiment [4]; above 100 µM in [5]; 14.3 µM in experiment [6]. Moreover, the GI50 in experiment [7] is above 100 µM; in experiment [8] it was above 100 µM; in experiment [9], 25.2 µM; in [10], above 100 µM. Also, the TGI in [1], in experiment [2], in experiment [3], in [4], in experiment [5] and in [6] was above 100 µM each time. Further, the TGI in experiment [7], in experiment [8], in experiment [9] and in [10] was above 100 µM each time.

Turning to `COc1c(OC(C)C)cc2cc(O)c(C(=O)NC3Cc4ccc(c(Cl)n4)O[C@@H]4C=C5C#C/C(=C\C#CC6OC56C4OC4CC(C)(O)C(O)C(C)O4)C(OC4CC(O)C(N(C)C)C(C)O4)COC3=O)cc2c1OC` (some centres not stated), the GI50 in [1] was 9.97 µM and 0.523 µg/mL; in experiment [2] it was 10 µg/mL; in [4], > 36.3 µM and 30.8 µg/mL; in [5], 0.165 µg/mL; in experiment [6] it was 0.482 µg/mL; in experiment [7] it was 21 µg/mL. Also, the GI50 was 11.5 µM and 0.838 µg/mL in experiment [8]; > 36.3 µM and 21.3 µg/mL in experiment [9]; 2.75 µg/mL in experiment [10]. Besides, the TGI in [1] is > 36.3 µM and 6.24 µg/mL; in [2], > 36.3 µM and 31.8 µg/mL; in experiment [3], above 36.3 µM; in experiment [4], > 36.3 µM and 37.5 µg/mL; in experiment [5], 37.5 µg/mL; in experiment [6] it was > 36.3 µM and 2.94 µg/mL. In addition, the TGI in experiment [7] is > 36.3 µM and 37.5 µg/mL; in [8] it was > 36.3 µM and 17.3 µg/mL; in experiment [9], > 36.3 µM and 37.5 µg/mL; in experiment [10], 37.5 µg/mL.

Regarding `O=C(c1cc(Cc2n[nH]c(=O)c3ccccc23)ccc1F)N1CCN(C(=O)C2CC2)CC1`, the TGI in experiment [1] is 23.4 µM and > 100 µM; in experiment [2] it was above 100 µM; in experiment [3] it was above 100 µM; in experiment [4] it was above 100 µM; in experiment [5], above 100 µM; in experiment [6] it was above 100 µM. Further, the TGI in experiment [7], in experiment [8], in [9] and in [10] was above 100 µM in each case. Besides, the GI50 in experiment [2] is above 100 µM; in experiment [3], 33.5 µM and > 100 µM; in [4], 22.7 µM and 36 µM; in experiment [5] it was 64.4 µM and > 94.1 µM; in experiment [7] it was 53.5 µM and > 100 µM; in experiment [8] it was 53.2 µM and 59.6 µM. The GI50 is 32.8 µM and > 77.2 µM in [9]; above 100 µM in experiment [10].

`CCOC(=O)C(Cc1ccc(N(CCCl)CCCl)cc1)NC(=O)C(Cc1ccccc1)NC(C)=O` (configuration not stated): the TGI is above 0.501 µM in experiment [1]; above 0.36 µM in experiment [2]; above 1 µM in experiment [3]; 0.0353 µM in [4]; above 1 µM in [5]; above 1 µM in experiment [6]. Further, the TGI in [7] was above 1 µM; in experiment [8] it was above 0.288 µM; in experiment [9], 0.361 µM; in experiment [10], above 0.44 µM.

As to `COc1ccc(COc2cc3oc(=O)c4cc(C(C)O)ccc4c3cc2OC)cc1` (configuration not stated), the GI50 is 11.6 µM in experiment [1]; 7.69 µM in experiment [2]; 45.5 µM in experiment [3]; 10.1 µM in [4]; above 22.4 µM in experiment [5]; 4.22 µM in [6]. The GI50 was above 31.4 µM in experiment [7], 9.89 µM in experiment [8], 17.1 µM in [9] and 13.2 µM in experiment [10]. Also, the TGI was 65.5 µM in experiment [1]; 30 µM in [2]; above 100 µM in experiment [3]; 66.2 µM in [4]; above 100 µM in experiment [5]; 33.5 µM in [6]. For the same compound, the TGI was above 100 µM in experiment [7], 40.5 µM in experiment [8], 63.1 µM in experiment [9] and 45.8 µM in experiment [10].

On to `[Cl][Cu][Cl]`, for which the GI50 in [1] was 3.6 µM; in experiment [2], above 10 µM; in experiment [3], above 10 µM; in experiment [4], above 10 µM; in [5] it was above 10 µM; in [6], above 10 µM. The GI50 in experiment [7], in experiment [8], in [9] and in experiment [10] was above 10 µM in each case. Further, the TGI in experiment [1], in [2], in experiment [3], in [4], in [5] and in experiment [6] was above 10 µM in each case. In addition, the TGI in experiment [7], in [8], in [9] and in experiment [10] was above 10 µM each time.
